# Data reported in patent US9353104B2, “Substituted pyridizinone derivatives as PDE10 inhibitors” (priority 2013, dated 2016).
# Molecular target: human PDE10A2 (Homo sapiens (Human), UniProt Q9Y233)
# Experiment: PDE10 fluorescence polarization (IMAP FP) inhibition assay
# Format: biochemical
# Settings: human PDE10A2 lysate, FAM-labeled cAMP 50 nM, room temperature; read-out: PDE10A Ki
# Description: The activity of the compounds in accordance with the present invention as PDE10 inhibitors may be readily determined without undue experimentation using a fluorescence polarization (FP) methodology that is well known in the art (Huang, W., et al., J. Biomol Screen, 2002, 7: 215). […] In a typical experiment the PDE10 inhibitory activity of the compounds of the present invention was determined in accordance with the following experimental method. PDE10A2 was amplified from human fetal brain cDNA (Clontech, Mountain View, Calif.) using a forward primer corresponding to nucleotides 56-77 of human PDE10A2 (Accession No. AF127480, Genbank Identifier 4894716), containing a Kozak consensus sequence, and a reverse primer corresponding to nucleotides 2406-2413 of human PDE10A2 (Accession No. AF127480, Genbank Identifier 4894716). Amplification with Easy-A polymerase (Stratagene, La Jolla, Calif.) was 95° C. for 2 minutes followed by thirty three cycles of 95° C. for 40 seconds, 55° C. for 30 seconds, and 72° C. for 2 minutes 48 seconds. Final extension was 72° C. for 7 minutes. The PCR product was TA cloned into pcDNA3.2-TOPO (Invitrogen, Carlsbad, Calif.) according to standard protocol. AD293 cells with 70-80% confluency were transiently transfected with human PDE10A2/pcDNA3.2-TOPO using Lipofectamine 2000 according to manufacturer specifications (Invitrogen, Carlsbad, Calif.). Cells were harvested 48 hours post-transfection and lysed by sonication (setting 3, 10×5 sec pulses) in a buffer containing 20 mM HEPES, 1 mM EDTA and protease inhibitor cocktail (Roche). Lysate was collected by centrifugation at 75,000×g for 20 minutes. Supernatant containing the cytoplasmic fraction was used for evaluation of PDE10A2 activity. The fluorescence polarization assay for cyclic nucleotide phosphodiesterases was performed using an IMAP® FP kit supplied by Molecular Devices, Sunnyvale, Calif. (product #R8139). IMAP® technology has been applied previously to phosphodiesterase assays (Huang, W., et al., J. Biomol Screen, 2002, 7: 215). Assays were performed at room temperature in 384-well microtiter plates with an incubation volume of 20.2 μL. Solutions of test compounds were prepared in DMSO and serially diluted with DMSO to yield 8 μL of each of 10 solutions differing by 3-fold in concentration, at 32 serial dilutions per plate. 100% inhibition is determined using a known PDE10 inhibitor, which can be any compound that is present at 5,000 times its Ki value in the assay described as follows, such as papaverine (see Siuciak, et al. Neuropharmacology (2006) 51:386-396; Becker, et al. Behav Brain Res (2008) 186(2):155-60; Threlfell, et al., J Pharmacol Exp Ther (2009) 328(3):785-795), 2-{4-[pyridin-4-yl-1-(2,2,2-trifluoroethyl)-1H-pyrazol-3-yl]phenoxymethyl}quinoline succinic acid or 2-[4-(1-methyl-4-pyridin-4-yl-1H-pyrazol-3-yl)-phenoxymethyl]quinoline succinic acid (see Schmidt, et al. J Pharmacol Exp Ther (2008) 325:681-690; Threlfell, et al., J Pharmacol Exp Ther (2009) 328(3): 785-795). 0% of inhibition is determined by using DMSO (1% final concentrations).
# A Labcyte Echo 555 (Labcyte, Sunnyvale, Calif.) is used to dispense 200 nL from each well of the titration plate to the 384 well assay plate. A solution of enzyme (1/1600 dilution from aliquots; sufficient to produce 20% substrate conversion) and a separate solution of FAM-labeled cAMP PDE from Molecular Devices (product #R7506), at a final concentration of 50 nM are made in the assay buffer (10 mM Tris HCl, pH 7.2, 10 mM MgCl2, 0.05% NaN3 0.01% Tween-20, and 1 mM DTT). The enzyme and the substrate are then added to the assay plates in two consecutive additions of 10 μL, and then shaken to mix. The reaction is allowed to proceed at room temperature for 30 minutes. A binding solution is then made from the kit components, comprised of 80% Solution A, 20% Solution B and binding reagent at a volume of 1/600 the total binding solution.
# Chain of human PDE10A2 (Q9Y233 267-1055): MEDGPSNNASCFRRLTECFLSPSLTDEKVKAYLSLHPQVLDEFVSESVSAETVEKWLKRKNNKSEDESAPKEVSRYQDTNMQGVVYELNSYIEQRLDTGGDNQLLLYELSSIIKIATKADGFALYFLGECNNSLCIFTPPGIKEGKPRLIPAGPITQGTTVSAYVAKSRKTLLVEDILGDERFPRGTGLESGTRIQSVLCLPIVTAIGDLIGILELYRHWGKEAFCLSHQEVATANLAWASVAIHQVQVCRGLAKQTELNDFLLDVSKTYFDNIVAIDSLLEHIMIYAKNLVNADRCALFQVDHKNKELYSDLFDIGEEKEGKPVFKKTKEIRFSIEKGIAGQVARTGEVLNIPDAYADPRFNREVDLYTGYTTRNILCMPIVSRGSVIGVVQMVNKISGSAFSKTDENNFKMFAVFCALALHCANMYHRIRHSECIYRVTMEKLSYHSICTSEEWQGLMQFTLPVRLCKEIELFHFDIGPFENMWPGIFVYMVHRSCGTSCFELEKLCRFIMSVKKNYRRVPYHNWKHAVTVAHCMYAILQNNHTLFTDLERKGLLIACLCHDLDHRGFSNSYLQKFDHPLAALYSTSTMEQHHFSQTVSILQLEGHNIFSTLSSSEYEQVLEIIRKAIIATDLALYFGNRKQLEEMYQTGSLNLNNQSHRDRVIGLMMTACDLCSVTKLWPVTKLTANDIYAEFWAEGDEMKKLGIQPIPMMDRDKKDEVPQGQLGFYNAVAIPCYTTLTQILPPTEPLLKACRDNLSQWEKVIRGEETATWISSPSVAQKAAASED
row,Ki [nM],SMILES
1,0.046,"Cc1cc(CNc2cc(OC[C@H]3C[C@@H]3c3ccc(OC(F)F)cn3)nn(C)c2=O)n(C)n1 [Example 28, 6-(((1S,2S)-2-(5-(difluoro-methoxy)pyridin-2-yl)-cyclopropyl)-methoxy)-4-((1,3-dimethyl-1H-pyrazol-5-yl)methyl-amino)-2-methylpyridazin-3(2H)one]"
2,1.5,"Cn1ccc([C@H]2C[C@@H]2COc2cc(NCc3ccnn3C)c(=O)n(C)n2)n1 [Example 98, 2-methyl-6-(((1S,2S)-2-(1-methyl-1H-pyrazol-3-yl)cyclopropyl)methoxy)-4-(((1-methyl-1H-pyrazol-5-yl)methyl)amino)-pyridazin-3(2H)-one]"
3,0.01,"COc1ccc([C@H]2C[C@@H]2COc2cc(NCc3cc(C)on3)c(=O)n(C)n2)nc1 [Example 87, 6-(((1S,2S)-2-(5-methoxypyridin-2-yl)cyclopropyl)methoxy)-2-methyl-4-(((5-methylisoxazol-3-yl)methyl)amino)pyridazin-3(2H)-one]"
4,5.7,"COc1ccc(Cn2cc(CNc3cc(OC[C@H]4C[C@@H]4c4ccc(OC)cn4)nn(C)c3=O)c(C)n2)cc1 [Example 77, 4-((1-(4-methoxybenzyl)-3-methyl-1H-pyrazol-4-yl)methylamino)-6-(((1S,2S)-2-(5-methoxy-pyridin-2-yl)cyclopropyl)-methoxy)-2-methyl-pyridazin-3(2H)-one]"
5,0.032,"CCn1nc(OC[C@H]2C[C@@H]2c2ccc(OC)cn2)cc(NCc2nnc(C)s2)c1=O [Example 144, 2-ethyl-6-(((1S,2S)-2-(5-methoxypyridin-2-yl)cyclopropyl)methoxy)-4-((5-methyl-1,3,4-thiadiazol-2-yl)methylamino)pyridazin-3(2H)-one]"
6,0.037,"Cc1cccc([C@H]2C[C@@H]2COc2cc(NCc3ncc(C)s3)c(=O)n(C)n2)n1 [Example 118, 2-methyl-6-(((1S,2S)-2-(6-methylpyridin-2-yl)cyclo-propyl)methoxy)-4-((5-methylthiazol-2-yl)methyl-amino)pyridazin-3(2H)one]"
7,1.9,"Cn1cc(CNc2cc(OC[C@H]3C[C@@H]3c3nn(C)c4ccccc34)nn(C)c2=O)cn1 [Example 111, 2-methyl-6-(((1S,2S)-2-(1-methyl-1H-indazol-3-yl)cyclopropyl)methoxy)-4-((1-methyl-1H-pyrazol-4-yl)methylamino)-pyridazin-3(2H)-one]"
8,0.066,"COc1ccc([C@H]2C[C@@H]2COc2cc(NCc3cn(C)nn3)c(=O)n(C)n2)nc1 [Example 147, 6-(((1S,2S)-2-(5-methoxy-pyridin-2-yl)-cyclopropyl-)methoxy)-2-methyl-4-((1-methyl-1H-1,2,3-triazol-4-yl)methylamino)pyridazin-3(2H)-one]"
9,0.058,"CCc1cc(CNc2cc(OC[C@H]3C[C@@H]3c3ccc(OC)cn3)nn(C)c2=O)n(C)n1 [Example 137, 4-((3-ethyl-1-methyl-1H-pyrazol-5-yl)methylamino)-6-(((1S,2S)-2-(5-methoxypyridin-2-yl)cyclopropyl)methoxy)-2-methylpyridazin-3(2H)-one]"
10,5.3,"COc1ccc([C@H]2C[C@@H]2COc2cc(NCc3ccc(F)c(C)n3)c(=O)n(C)n2)nc1 [Example 74, 4-(((5-fluoro-6-methyl-pyridin2yl)methyl)amino)-6-(((1S,2S)-2-(5-methoxy-pyridin-2-yl)cyclopropyl-)-methoxy)-2-methyl-pyridazin-3(2H)-one]"
11,0.368,"Cc1nc(CNc2cc(OC[C@H]3C[C@@H]3c3ccn(C)n3)nn(C)c2=O)sc1C [Example 128, 4-((4,5-dimethylthiazol-2-yl)methylamino)-2-methyl-6-(((1S,2S)-2-(1-methyl-1H-pyrazol-3-yl)cyclo-propyl)methoxy)pyridazin-3(2H)-one]"
12,55.1,"COc1ccc([C@H]2C[C@@H]2COc2cc(NCc3nc(C)ccc3F)c(=O)n(C)n2)nc1 [Example 70, 4-(((3-fluoro-6-methyl-pyridin-2-yl)methyl)-amino)-6-(((1S,2S)-2-(5-methoxypyridin-2-yl)-cyclopropyl)methoxy)-2-methylpyridazin-3(2H)one]"
13,2.7,"COc1ccc([C@H]2C[C@@H]2COc2cc(NCc3cccc(C)n3)c(=O)n(C)n2)nc1 [Example 97, 6-(((1S,2S)-2-(5-methoxypyridin-2-yl)-cyclopropyl)methoxy)-2-methyl-4-(((6-methyl-pyridin-2-yl)methyl)-amino)pyridazin-3(2H)one]"
14,0.045,"Cc1ccc([C@H]2C[C@@H]2COc2cc(NCc3nc(C)c(C)s3)c(=O)n(C)n2)nc1 [Example 127, 4-((4,5-dimethylthiazol-2-yl)methylamino)-2-methyl-6-(((1S,2S)-2-(5-methyl-pyridin-2-yl)cyclopropyl- )methoxy)pyridazin-3(2H)-one]"
15,0.002,"Cc1ccc(CNc2cc(OC[C@H]3C[C@@H]3c3ccc4c(n3)CCC4)nn(C)c2=O)c(C)n1 [Example 56, 6-(((1S,2S)-2-(6,7-dihydro-5H-cyclopenta-[b]pyridin-2-yl)cyclo-propyl)methoxy)-4-(((2,6-dimethylpyridin-3-yl)-methyl)amino)-2-methyl-pyridazin-3(2H)-one]"
16,0.023,"Cc1ccc(CNc2cc(OC[C@H]3C[C@@H]3c3ccn(C)n3)nn(C)c2=O)c(C)n1 [Example 51, 4-(((2,6-dimethylpyridin-3-yl)methyl)amino)-2-methyl-6-(((1S,2S)-2-(1-methyl-1H-pyrazol-3-yl)cyclopropyl)methoxy)-pyridazin-3(2H)-one]"
17,9.4,"Cc1cnn(C)c1CNc1cc(OC[C@H]2C[C@@H]2c2ccn(C)n2)nn(C)c1=O [Example 86, 4-(((1,4-dimethyl-1H-pyrazol-5-yl)methyl)amino)-2-methyl-6-(((1S,2S)-2-(1-methyl-1H-pyrazol-3-yl)cyclopropyl)methoxy)-pyridazin-3(2H)-one]"
18,10.3,"COc1ccc([C@H]2C[C@@H]2COc2cc(NCCc3nccs3)c(=O)n(C)n2)nc1 [Example 136, 6-(((1S,2S)-2-(5-methoxy-pyridin-2-yl)cyclopropyl-)methoxy)-2-methyl-4-(2-(thiazol-2-yl)ethylamino-)pyridazin-3(2H)-one]"
19,0.097,"Cc1cnc(CNc2cc(OC[C@H]3C[C@@H]3c3ccn(C)n3)nn(C)c2=O)s1 [Example 26, 2-methyl-6-(((1S,2S)-2-(1-methyl-1H-pyrazol-3-yl)cyclopropyl)methoxy)-4-((5-methylthiazol-2-yl)methylamino)pyridazin-3(2H)-one]"
20,0.0819,"Cc1nnc(CNc2cc(OC[C@H]3C[C@@H]3c3ccc(Cl)cn3)nn(C)c2=O)s1 [Example 25, 6-(((1S,2S)-2-(5-chloropyridin-2-yl)cyclopropyl)methoxy)-2-methyl-4-((5-methyl-1,3,4-thiadiazol-2-yl)methylamino)pyridazin-3(2H)-one]"
21,0.002,"Cc1cnc(CNc2cc(OC[C@H]3C[C@@H]3c3ccc4c(n3)CCC4)nn(C)c2=O)s1 [Example 124, 6-(((1S,2S)-2-(6,7-dihydro-5H-cyclopenta-[b]pyridin-2-yl)cyclopropyl)methoxy)-2-methy-4-((5-methylthiazol-2-yl)-methylamino-)pyridazin-3(2H)-one]"
22,0.099,Cc1cc(CNc2cc(OC[C@H]3C[C@@H]3c3ccc(F)cn3)nn(C)c2=O)n(C)n1 [Example 18]
